Structures can show the parent of a compound that is named as a salt.
Legend:
Lck (h) = Lck (h) (Homo sapiens, UniProt P06239); test: Lck Human  Kinase Enzymatic Radiometric Assay; type: biochemical; details: read-out: Lck IC50 nM Range*
Method in brief: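 Substrate 33P-incorporation measured by scintillation counting after spotting on P30 filtermat and phosphoric acid washes. Human Lck reacted 40 min at RT in 50 mM Tris pH 7.5 with 10 mM MgAcetate, [gamma-33P]-ATP, 250 uM Cdc2 peptide, 0.1 mM EGTA and 0.1 mM Na3VO4.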

[1] = biological target: T1, Recombinant (1-346) HPK1 (h) (Homo sapiens, UniProt Q92918); test: HPK1 Human STE Kinase Enzymatic Radiometric Assay; type: biochemical; details: read-out: HPK1 IC50 nM Range*
T1 construct: Recombinant (1-346) HPK1 (h) is incubated with 8 mM MOPS pH 7.0
T1 sequence (Q92918 1-346): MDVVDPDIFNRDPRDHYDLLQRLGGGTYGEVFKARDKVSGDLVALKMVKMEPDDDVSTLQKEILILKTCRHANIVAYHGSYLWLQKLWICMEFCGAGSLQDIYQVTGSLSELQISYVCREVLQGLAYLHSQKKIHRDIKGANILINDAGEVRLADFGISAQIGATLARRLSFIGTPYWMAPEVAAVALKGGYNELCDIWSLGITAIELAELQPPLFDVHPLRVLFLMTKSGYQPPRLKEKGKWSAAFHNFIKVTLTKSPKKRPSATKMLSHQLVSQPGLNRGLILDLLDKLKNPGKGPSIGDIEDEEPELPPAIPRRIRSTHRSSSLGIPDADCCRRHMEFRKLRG
Description: A stock solution of 10 mM of test compound is prepared in DMSO. The compound plate was prepared by 3-fold and 9-point serial dilutions. […] The reaction is initiated by The addition of the Mg/ATP mix. After incubation for 40 minutes at RT, the reaction is stopped by the addition of phosphoric acid to a concentration of 0.5%.

Lck (h), sequence (P06239 whole entry): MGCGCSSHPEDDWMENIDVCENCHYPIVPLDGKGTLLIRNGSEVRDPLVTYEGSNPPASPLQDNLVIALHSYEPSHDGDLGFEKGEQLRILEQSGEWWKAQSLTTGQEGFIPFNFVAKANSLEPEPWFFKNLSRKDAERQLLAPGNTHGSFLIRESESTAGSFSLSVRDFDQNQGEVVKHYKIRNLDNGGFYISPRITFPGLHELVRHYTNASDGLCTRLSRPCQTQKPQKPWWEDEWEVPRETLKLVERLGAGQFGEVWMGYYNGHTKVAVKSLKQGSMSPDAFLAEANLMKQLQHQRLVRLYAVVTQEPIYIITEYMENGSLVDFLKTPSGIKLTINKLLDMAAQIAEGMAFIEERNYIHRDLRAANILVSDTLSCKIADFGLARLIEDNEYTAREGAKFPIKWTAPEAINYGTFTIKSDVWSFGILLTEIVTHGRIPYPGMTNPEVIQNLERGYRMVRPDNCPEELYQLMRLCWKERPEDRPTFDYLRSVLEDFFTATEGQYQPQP

Compound Nc1nc(F)c(-c2ccc(C3CCN(CC4CC4)CC3)cc2)cc1-c1cc(F)c2c(c1)CCNC2=O [I-308, 6-(2-amino-5-(4-(1-(cyclopropylmethyl)piperidin-4-yl)phenyl)-6-fluoropyridin-3-yl)-8-fluoro-3,4-dihydroisoquinolin-1(2H)-one] has an IC50 (Lck (h)) greater than 1000 nM and an IC50 [1] of 0.1 to 10 nM.
Work on Nc1nc(F)c(-c2ccc(N3CCOCC3)cc2)cc1-c1cc(F)c2c(c1)CCNC2=O [I-309, 6-(2-amino-6-fluoro-5-(4-morpholinophenyl)pyridin-3-yl)-8-fluoro-3,4-dihydroisoquinolin-1(2H)-one] yielded an IC50 (Lck (h)) greater than 1000 nM and an IC50 [1] of 0.1 to 10 nM.
CC(C)N1CCN(c2ccc(-c3cc(-c4ccc5c(c4)CC(CN(C)C)NC5=O)c(N)nc3F)cc2)CC1 (stereo not drawn) [I-310, 6-(2-amino-6-fluoro-5-(4-(4-isopropylpiperazin-1-yl)phenyl)pyridin-3-yl)-3-((dimethylamino)methyl)-3,4-dihydroisoquinolin-1(2H)-one] gave an IC50 (Lck (h)) greater than 1000 nM and an IC50 [1] of 11 to 100 nM.
CN(C)CC1Cc2cc(-c3cc(-c4ccc(N5CCOCC5)cc4)c(F)nc3N)ccc2C(=O)N1 (stereo not drawn) [I-311, 6-(2-amino-6-fluoro-5-(4-morpholinophenyl)pyridin-3-yl)-3-((dimethylamino)methyl)-3,4-dihydroisoquinolin-1(2H)-one] showed an IC50 (Lck (h)) greater than 1000 nM and an IC50 [1] of 11 to 100 nM.
For CN(C)CC1Cc2cc(-c3cc(-c4ccc(Cl)cc4)c(F)nc3N)ccc2C(=O)N1 (stereo not drawn) [I-312, 6-(2-amino-5-(4-chlorophenyl)-6-fluoropyridin-3-yl)-3-((dimethylamino)methyl)-3,4-dihydroisoquinolin-1(2H)-one], the IC50 (Lck (h)) was greater than 1000 nM and the IC50 [1] was 101 to 1000 nM.
Cc1cc(-c2cc(-c3cc4c(cc3F)C(=O)NCC4)c(N)nc2F)ccn1 [I-313, 6-(6-amino-2-fluoro-2′-methyl-[3,4′-bipyridin]-5-yl)-7-fluoro-3,4-dihydroisoquinolin-1(2H)-one] showed an IC50 (Lck (h)) greater than 1000 nM and an IC50 [1] of 11 to 100 nM.
Nc1nc(F)c(-c2ccnc(OCC3CC3)c2)cc1-c1cc2c(cc1F)C(=O)NCC2 [I-314, 6-(6-amino-2′-(cyclopropylmethoxy)-2-fluoro-[3,4′-bipyridin]-5-yl)-7-fluoro-3,4-dihydroisoquinolin-1(2H)-one] gave an IC50 (Lck (h)) greater than 1000 nM and an IC50 [1] of 101 to 1000 nM.
Nc1nc(F)c(-c2cccc(OCC3CC3)c2)cc1-c1cc2c(cc1F)C(=O)NCC2 [I-315, 6-(2-amino-5-(3-(cyclopropylmethoxy)phenyl)-6-fluoropyridin-3-yl)-7-fluoro-3,4-dihydroisoquinolin-1(2H)-one] showed an IC50 (Lck (h)) greater than 1000 nM and an IC50 [1] of 101 to 1000 nM.
Compound Nc1nc(F)c(-c2ccc(OCC3CC3)cc2)cc1-c1cc2c(cc1F)C(=O)NCC2 [I-316, 6-(2-amino-5-(4-(cyclopropylmethoxy)phenyl)-6-fluoropyridin-3-yl)-7-fluoro-3,4-dihydroisoquinolin-1(2H)-one] has an IC50 (Lck (h)) greater than 1000 nM and an IC50 [1] of 11 to 100 nM.
For Nc1nc(F)c(-c2ccc(OC3CN(C(=O)CC4CC4)C3)cc2)cc1-c1ccc2c(c1)CCNC2=O [I-317, 6-(2-amino-5-(4-((1-(2-cyclopropylacetyl)azetidin-3-yl)oxy)phenyl)-6-fluoropyridin-3-yl)-3,4-dihydroisoquinolin-1(2H)-one], the IC50 (Lck (h)) was greater than 1000 nM and the IC50 [1] was 0.1 to 10 nM.
Nc1nc(F)c(-c2ccc(OC3CN(C4COC4)C3)cc2)cc1-c1ccc2c(c1)CCNC2=O [I-318, 6-(2-amino-6-fluoro-5-(4-((1-(oxetan-3-yl)azetidin-3-yl)oxy)phenyl)pyridin-3-yl)-3,4-dihydroisoquinolin-1(2H)-one] showed an IC50 (Lck (h)) greater than 1000 nM and an IC50 [1] of 11 to 100 nM.
C[C@@H]1CN(c2ccc(-c3cc(-c4ccc5c(c4)CCNC5=O)c(N)nc3F)cc2)C[C@H](C)N1 [I-319, 6-(2-amino-5-(4-((3R,5S)-3,5-dimethylpiperazin-1-yl)phenyl)-6-fluoropyridin-3-yl)-3,4-dihydroisoquinolin-1(2H)-one] showed an IC50 (Lck (h)) greater than 1000 nM and an IC50 [1] of 0.1 to 10 nM.
Nc1nc(F)c(-c2ccc([C@]34C[C@H]3CN(CC3CC3)C4)cc2)cc1-c1cc(F)c2c(c1)CCNC2=O [I-320, 6-(2-amino-5-(4-((1S,5R)-3-(cyclopropylmethyl)-3-azabicyclo[3.1.0]hexan-1-yl)phenyl)-6-fluoropyridin-3-yl)-8-fluoro-3,4-dihydroisoquinolin-1(2H)-one formate] gave an IC50 (Lck (h)) of 101 to 1000 nM and an IC50 [1] of 0.1 to 10 nM.
Compound Nc1nc(F)c(-c2ccc(OC3CN(CC4CC4)C3)cc2)cc1-c1ccc2c(c1)CCNC2=O [I-321, 6-(2-amino-5-(4-((1-(cyclopropylmethyl)azetidin-3-yl)oxy)phenyl)-6-fluoropyridin-3-yl)-3,4-dihydroisoquinolin-1(2H)-one] has an IC50 (Lck (h)) greater than 1000 nM and an IC50 [1] of 0.1 to 10 nM.
Nc1nc(F)c(-c2ccc(OC3CCN(CC4CC4)CC3)cc2)cc1-c1ccc2c(c1)CCNC2=O [I-322, 6-(2-amino-5-(4-((1-(cyclopropylmethyl)piperidin-4-yl)oxy)phenyl)-6-fluoropyridin-3-yl)-3,4-dihydroisoquinolin-1(2H)-one] gave an IC50 (Lck (h)) greater than 1000 nM and an IC50 [1] of 0.1 to 10 nM.
For Nc1nc(F)c(-c2ccc(OC3CCN(C(=O)CC4CC4)CC3)cc2)cc1-c1cc2c(cc1F)C(=O)NCC2 [I-323, 6-(2-amino-5-(4-((1-(2-cyclopropylacetyl)piperidin-4-yl)oxy)phenyl)-6-fluoropyridin-3-yl)-7-fluoro-3,4-dihydroisoquinolin-1(2H)-one], the IC50 (Lck (h)) was greater than 1000 nM and the IC50 [1] was 0.1 to 10 nM.
Nc1nc(F)c(-c2ccc(OC3CCN(CC4CC4)CC3)cc2)cc1-c1cc2c(cc1F)C(=O)NCC2 [I-324, 6-(2-amino-5-(4-((1-(cyclopropylmethyl)piperidin-4-yl)oxy)phenyl)-6-fluoropyridin-3-yl)-7-fluoro-3,4-dihydroisoquinolin-1(2H)-one] was tested, and the IC50 (Lck (h)) was greater than 1000 nM and the IC50 [1] was 0.1 to 10 nM.
Nc1nc(F)c(-c2ccc(OC3CCN(C4COC4)CC3)cc2)cc1-c1cc2c(cc1F)C(=O)NCC2 [I-325, 6-(2-amino-6-fluoro-5-(4-((1-(oxetan-3-yl)piperidin-4-yl)oxy)phenyl)pyridin-3-yl)-7-fluoro-3,4-dihydroisoquinolin-1(2H)-one] was tested, and the IC50 (Lck (h)) was greater than 1000 nM and the IC50 [1] was 11 to 100 nM.
Work on CC(=O)N1CC(Oc2ccc(-c3cc(-c4ccc5c(c4)CCNC5=O)c(N)nc3F)cc2)C1 [I-326, 6-(5-(4-((1-acetylazetidin-3-yl)oxy)phenyl)-2-amino-6-fluoropyridin-3-yl)-3,4-dihydroisoquinolin-1(2H)-one] yielded an IC50 (Lck (h)) greater than 1000 nM and an IC50 [1] of 0.1 to 10 nM.
With CC(=O)N1CCC(Oc2ccc(-c3cc(-c4cc5c(cc4F)C(=O)NCC5)c(N)nc3F)cc2)CC1 [I-327, 6-(5-(4-((1-acetylpiperidin-4-yl)oxy)phenyl)-2-amino-6-fluoropyridin-3-yl)-7-fluoro-3,4-dihydroisoquinolin-1(2H)-one] the IC50 (Lck (h)) was greater than 1000 nM and the IC50 [1] was 0.1 to 10 nM.
Compound CC(C)N1CCc2cc(-c3cc(-c4ccc5c(c4)CCNC5=O)c(N)nc3F)ccc2C1 [I-328, 6-(2-amino-6-fluoro-5-(2-isopropyl-1,2,3,4-tetrahydroisoquinolin-6-yl)pyridin-3-yl)-3,4-dihydroisoquinolin-1(2H)-one] has an IC50 (Lck (h)) greater than 1000 nM and an IC50 [1] of 11 to 100 nM.
With COCCN1CCN(Cc2cccc(-c3cc(-c4ccc5c(c4)CCNC5=O)c(N)nc3F)c2)CC1 [I-329, 6-(2-amino-6-fluoro-5-(3-((4-(2-methoxyethyl)piperazin-1-yl)methyl)phenyl)pyridin-3-yl)-3,4-dihydroisoquinolin-1(2H)-one] the IC50 (Lck (h)) was greater than 1000 nM and the IC50 [1] was 101 to 1000 nM.
With CC(C)N1CCN(Cc2cccc(-c3cc(-c4ccc5c(c4)CCNC5=O)c(N)nc3F)c2)CC1 [I-330, 6-(2-amino-6-fluoro-5-(3-((4-isopropylpiperazin-1-yl)methyl)phenyl)pyridin-3-yl)-3,4-dihydroisoquinolin-1(2H)-one] the IC50 (Lck (h)) was greater than 1000 nM and the IC50 [1] was 11 to 100 nM.
CN1CCN(C(=O)c2cccc(-c3cc(-c4ccc5c(c4)CCNC5=O)c(N)nc3F)c2)CC1 [I-331, 6-(2-amino-6-fluoro-5-(3-(4-methylpiperazine-1-carbonyl)phenyl)pyridin-3-yl)-3,4-dihydroisoquinolin-1(2H)-one] was tested, and the IC50 (Lck (h)) was greater than 1000 nM and the IC50 [1] was 101 to 1000 nM.
Work on CN1CCN(c2ccc(-c3cc(-c4ccc5c(c4)CCNC5=O)c(N)nc3F)cc2N)CC1 [I-332, 6-(2-amino-5-(3-amino-4-(4-methylpiperazin-1-yl)phenyl)-6-fluoropyridin-3-yl)-3,4-dihydroisoquinolin-1(2H)-one] yielded an IC50 (Lck (h)) greater than 1000 nM and an IC50 [1] of 0.1 to 10 nM.
With Nc1nc(F)c(-c2ccc3c(c2)CCNC3=O)cc1-c1ccc2c(c1)CCNC2=O [I-333, 6,6′-(2-amino-6-fluoropyridine-3,5-diyl)bis(3,4-dihydroisoquinolin-1(2H)-one)] the IC50 (Lck (h)) was greater than 1000 nM and the IC50 [1] was 0.1 to 10 nM.
Nc1nc(F)c(-c2ccc3c(c2)CNCC3)cc1-c1ccc2c(c1)CCNC2=O [I-334, 6-(2-amino-6-fluoro-5-(1,2,3,4-tetrahydroisoquinolin-7-yl)pyridin-3-yl)-3,4-dihydroisoquinolin-1(2H)-one 2,2,2-trifluoroacetate] showed an IC50 (Lck (h)) greater than 1000 nM and an IC50 [1] of 11 to 100 nM.
